Like-named read-outs stand apart in the source and are kept apart here.
Columns and labels:
[1] = biological target: T1, acetylcholinesterase (Electrophorus electricus, UniProt O42275); experiment: Inhibition of acetylcholinesterase activity; format: biochemical; conditions: activity without drug compound taken as 100, average of three measurements, read-out: Inhibition rate (%)
T1 construct: purchased Sigma C-2888
Description: Inhibition of Acetylcholinesterase Activity:
Acetylcholinesterase activity was assayed in accordance with the method of S. H. Sterri and F. Fonnum described in European Journal of Biochemistry, 91: 215-222, 1978. The method consisted of incubating 0.5 μU of authentic acetylcholinesterase ([…]) (Sigma, No. C-2888) at 30° C. for 15 minutes in a 20 mM sodium phosphate buffer (pH 7.4). with 1.3 mM [1^-14 C] acetylcholine (0.025 μCi) being used as a substrate. Selected compounds of the general formula (I) were added at a concentration of 1 μM to the reaction solution and the resulting effect on enzymatic activity was evaluated.
The result was obtained as the average of three measurements and shown in Table 2 in terms of percentage, with the activity for the case where no drum compound was added being taken as 100.

[2] = system: male ICR mice; experiment: Improvement of memory and learning ability tested by passive avoidance response; format: in vivo; conditions: dose 10 (μg/kg i.p.); retention trial 24 hours after acquisition trial
Description: Improvement of memory and Learning Ability Tested by Passive Avoidance Response:
Four groups of male ICR mice (10-14 weeks old). each consisting of 10 animals, were used in the experiment. Except for one control group, the mice were administered with selected compounds of the present invention. The experimental chamber consisted of a light and a dark compartment and an electric current shock source was connected to the floor grid in the dark compartment.
The experimental sessions consisted of acclimation. acquisition, and retention trials and were performed for […], one trial per day. In the acclimation trial, animals were placed in the light compartment of the experimental chamber and left there for 5 minutes to acclimate them to the apparatus. In the acquisition trial which was conducted on the 2nd day, the animals were placed in the light compartment and when they entered the dark compartment, they were confined and given an a.c. electric shock (1 mA) through the floor grid for 10 seconds. In the retention trial which was conducted 24 hours after the acquisition trial, the animals were placed in the light compartment of the chamber and the step-through latency (i.e., the time required for the animals to enter the dark compartment) was measured. A physiological saline solution was administered at the acclimation trial to all of the animals. At the acquisition trial, selected compounds were administered in amounts of 10 μg/kg of body weight (1 ml/100 g). The control group was administered the same amount of physiological saline solution 60 minutes before the start of the trial. All administrations were intraperitoneal.

[3] = system: norepinephrine uptake into the synaptosomes; experiment: Inhibition of catecholamine uptake: 3H-norepinephrine uptake into synaptosomes; format: biochemical, rats (F344/Crj); conditions: 1 μM; norepinephrine uptake in the absence of drug compounds taken as 100
Description: (§1) Inhibition of Catecholamine Uptake:
(§2) A crude synaptosomal fraction (P2) was obtained from the brain of rats (F344/Crj) in the usual manner. In accordance with the method of S. H. Snyder and J. T. Coyle described in Journal of Pharmacology and Experimental Therapeutics, 165(1), 78-86, 1969, the fraction P2 was incubated in a Krebs-Henseleit bicarbonate buffer solution at 37° C. for 10 minutes together with 50 nM ^3 H-norepinephrine (0.25 jμCi). Thereafter, the uptake of norepinephrine into the synaptosomes was measured by the filtration method. Selected compounds were added at a concentration of 1 μM to the solution being incubated and their effect on norepinephrine uptake was examined. The control drug was tetrahydroaminoacridine (THA).
The results are shown in Table 3 in terms of percentage, with norepinephrine uptake in the absence of drug compounds being taken as 100.

[4] = system: uptake of dopamine into synaptosomes; experiment: Inhibition of catecholamine uptake: 3H-dopamine uptake into synaptosomes; format: biochemical, rats (F344/Crj); conditions: 1 μM; dopamine uptake in the absence of drugs taken as 100
Description: as §2, §1
The uptake of dopamine into synaptosomes was measured by repeating the procedure of Test Example 2 except that 50 nM ^3 H-norepinephrine (0.25 μCi) was replaced by 15 nM ^3 H-dopamine (0.68 μCi). The control drug was tetrahydroaminoacridine (THA). The result is shown in Table 5 in terms of percentage, with dopamine uptake in the absence of drugs being taken as 100.

[5] = biological target: T2, MAO-A (Rattus norvegicus, UniProt P21396); experiment: Inhibition of monoamine oxidase: MAO-A; format: biochemical, rats (F344/Crj); conditions: read-out: Inhibition rate (%) MAO-A
T2 construct: A crude synaptosomal fraction (P2) was obtained from the brain of rats (F344/Crj); from tissue; host or cells: rat (F344/Crj) brain, crude synaptosomal fraction (P2), homogenized
T2 sequence (P21396 1-526): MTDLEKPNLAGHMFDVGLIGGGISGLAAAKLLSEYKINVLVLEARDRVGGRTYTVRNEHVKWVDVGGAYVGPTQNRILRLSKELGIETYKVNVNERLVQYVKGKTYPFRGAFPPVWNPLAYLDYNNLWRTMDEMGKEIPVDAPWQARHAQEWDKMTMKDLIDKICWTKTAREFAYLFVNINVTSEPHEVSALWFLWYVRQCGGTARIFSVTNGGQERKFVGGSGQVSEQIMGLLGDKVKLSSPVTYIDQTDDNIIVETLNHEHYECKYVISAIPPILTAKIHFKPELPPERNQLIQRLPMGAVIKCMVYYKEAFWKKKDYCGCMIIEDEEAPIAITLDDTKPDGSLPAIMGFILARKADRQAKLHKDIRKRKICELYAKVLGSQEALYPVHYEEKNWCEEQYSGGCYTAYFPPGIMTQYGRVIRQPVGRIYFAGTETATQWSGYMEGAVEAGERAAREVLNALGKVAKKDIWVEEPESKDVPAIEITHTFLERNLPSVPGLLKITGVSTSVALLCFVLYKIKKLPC
Description: (§3) Inhibition of Monoamine Oxidase (MAO):
(§4) A crude synaptosomal fraction (P2) was obtained from the brain of rats (F344/Crj) in the usual manner and homogenized to perform MAO activity measurements. The substrate was 12 μM [^14 C]-serotonin in the case of MAO-A activity measurements, and 5 μM [^14 C]-2-phenethylamine in the case of MAO-B activity measurements. In accordance with the method of R. J. Wurtman and J. Axelrod described in Biochemical Pharmacol. 12, […], 1963, the homogenates were incubated in 100 mM phosphate buffer (pH 7.4) at 37° C. for 20 minutes and the effect of adding selected compounds at a concentration of 10 μM was evaluated.

[6] = biological target: T3, MAO-B (Rattus norvegicus, UniProt P19643); experiment: Inhibition of monoamine oxidase: MAO-B; format: biochemical, rats (F344/Crj); conditions: read-out: Inhibition rate (%) MAO-B
T3 construct: A crude synaptosomal fraction (P2) was obtained from the brain of rats (F344/Crj); from tissue; host or cells: rat (F344/Crj) brain, crude synaptosomal fraction (P2), homogenized
T3 sequence (P19643 1-520): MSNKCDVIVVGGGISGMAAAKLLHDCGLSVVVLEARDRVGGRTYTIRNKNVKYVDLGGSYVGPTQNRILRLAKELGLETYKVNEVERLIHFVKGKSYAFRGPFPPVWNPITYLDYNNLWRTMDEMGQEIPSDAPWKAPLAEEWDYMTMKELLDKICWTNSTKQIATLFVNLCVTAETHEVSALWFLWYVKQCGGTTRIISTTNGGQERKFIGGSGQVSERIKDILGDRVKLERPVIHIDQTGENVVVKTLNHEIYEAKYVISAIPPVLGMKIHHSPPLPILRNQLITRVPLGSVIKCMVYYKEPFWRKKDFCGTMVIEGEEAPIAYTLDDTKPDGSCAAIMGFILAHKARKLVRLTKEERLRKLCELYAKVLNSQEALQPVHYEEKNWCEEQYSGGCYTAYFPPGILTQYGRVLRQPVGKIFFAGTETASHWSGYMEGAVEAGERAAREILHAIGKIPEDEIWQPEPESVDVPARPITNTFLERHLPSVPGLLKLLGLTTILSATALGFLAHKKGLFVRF
Description: as §3, §4

[7] = 10 μM, 12 μM [14C]-serotonin substrate, None = 100
[8] = 10 μM, 5 μM [14C]-2-phenethylamine substrate, None = 100

T1 sequence (O42275 24-633): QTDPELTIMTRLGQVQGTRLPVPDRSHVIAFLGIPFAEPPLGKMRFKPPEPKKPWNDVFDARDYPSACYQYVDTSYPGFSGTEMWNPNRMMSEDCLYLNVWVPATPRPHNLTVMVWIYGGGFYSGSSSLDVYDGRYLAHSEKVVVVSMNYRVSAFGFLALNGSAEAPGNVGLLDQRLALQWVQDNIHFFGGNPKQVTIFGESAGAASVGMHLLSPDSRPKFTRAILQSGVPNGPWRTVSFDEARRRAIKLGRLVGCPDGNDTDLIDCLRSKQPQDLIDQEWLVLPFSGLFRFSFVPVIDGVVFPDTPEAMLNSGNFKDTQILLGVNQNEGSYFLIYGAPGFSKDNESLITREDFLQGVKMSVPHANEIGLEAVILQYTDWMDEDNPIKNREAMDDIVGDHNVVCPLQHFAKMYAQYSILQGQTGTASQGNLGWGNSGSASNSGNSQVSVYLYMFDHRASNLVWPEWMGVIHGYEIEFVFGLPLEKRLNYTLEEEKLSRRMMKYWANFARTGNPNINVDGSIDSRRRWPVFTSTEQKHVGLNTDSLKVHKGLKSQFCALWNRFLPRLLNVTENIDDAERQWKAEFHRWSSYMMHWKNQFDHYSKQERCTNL

For `CN1CCN(c2cnc3ccccc3c2N)CC1` [Compound 2], the inhibition at 1 µM [1] was 27.1% and the “Step through latency” value [2] was 92.1 ± 13.5 s.

In the case of `Nc1c(N2CCCCC2)c(Nc2ccccc2)nc2ccccc12` [Compound 35], the inhibition at 1 µM [1] is reported as 28.3%.

In the case of `CCN(CC)c1c(C2CCCCC2)nc2ccccc2c1N` [Compound 24], the “Step through latency” value [2] is reported as 94.2 ± 14.7 s, the “Inhibition rate (%)” value [3] is reported as 68.2% and the “Inhibition rate (%)” value [4] is reported as 59.6%.

With `Nc1c2c(nc(C3CCCCC3)c1N1CCOCC1)CCCC2` [Compound 19, 4-amino-2-cyclohexyl-3-morpholino-5,6,7,8-tetrahydroquinoline] the inhibition at 1 µM [1] was 21.8%, the “Step through latency” value [2] was 107.1 ± 29.9 s and the “Inhibition rate (%)” value [3] was 83.2%.

For `Nc1c(N2CCOCC2)c(C2CCCCC2)nc2ccccc12` [Compound 18, 4-amino-2-cyclohexyl-3-morpholinoquinoline], the “Step through latency” value [2] was 116.4 ± 29.2 s.

`CCNc1c(N2CCOCC2)nc2ccccc2c1N` [Compound 52, 4-amino-3-ethylamino-2-morpholinoquinoline] was tested, and the inhibition at 10 µM [5, 7] was 0%, the inhibition at 10 µM [6, 8] was 63% and the “Inhibition rate (%)” value [3] was 79.8%. For the same compound, the “Inhibition rate (%)” value [4] was 57.8%.

`Nc1c(N2CCCCC2)c(C2CCCCC2)nc2ccccc12` [Compound 26] was tested, and the “Inhibition rate (%)” value [3] was 68.2% and the “Inhibition rate (%)” value [4] was 55.4%.

`CCCC(C)c1nc2ccccc2c(N)c1N1CCOCC1` (centres unmarked) [Compound 39] was tested, and the “Step through latency” value [2] was 108.3 ± 16.0 s and the “Inhibition rate (%)” value [3] was 71.9%.

In the case of `CCN(CC)c1c(C2CCCCC2=O)nc2ccccc2c1N` (centres unmarked) [Compound 22], the “Step through latency” value [2] is reported as 144.8 ± 25.5 s.

In the case of `CCNc1nc2ccccc2c(N)c1N1CCCCC1` [Compound 45], the “Step through latency” value [2] is reported as 70.7 ± 6.8 s, the “Inhibition rate (%)” value [3] is reported as 79.8% and the “Inhibition rate (%)” value [4] is reported as 82.3%.

`CCN(CC)c1c(NC2CCCCC2)nc2c(c1N)CCCC2` [Compound 34] was tested, and the “Inhibition rate (%)” value [3] was 80.0% and the “Inhibition rate (%)” value [4] was 84.8%.

`Nc1c(N2CCCCC2)cnc2ccccc12` [drawing 149] showed an inhibition at 10 µM [5, 7] of 44.1% and an inhibition at 10 µM [6, 8] of 82.9%.

For `CCN(CC)c1c(C2CCCCC2)nc2c(c1N)CCCC2` [Compound 25], the inhibition at 1 µM [1] was 30.1%, the “Inhibition rate (%)” value [3] was 75.3% and the “Inhibition rate (%)” value [4] was 76.4%.

`CCCN(CCC)c1c(C2CCCCC2O)nc2c(c1N)CCCC2` (centres unmarked) [Compound 30] was tested, and the “Inhibition rate (%)” value [3] was 76.9% and the “Inhibition rate (%)” value [4] was 79.2%.

`Nc1ccnc(C2CCCCC2=O)c1N1CCOCC1` (centres unmarked) [Compound 49] was tested, and the inhibition at 10 µM [5, 7] was 54.5%, the inhibition at 10 µM [6, 8] was 71.2% and the “Inhibition rate (%)” value [4] was 67.5%.

With `Nc1c2c(nc(Nc3ccccc3)c1N1CCOCC1)CCCC2` [Compound 15, 4-amino-2-anilino-3-morpholino-5,6,7,8-tetrahydroquinoline] the inhibition at 1 µM [1] was 37.2%, the “Step through latency” value [2] was 80.4 ± 14.6 s and the “Inhibition rate (%)” value [3] was 85.4%.

Work on `Nc1c2c(nc(C3CCCCC3=O)c1N1CCOCC1)CCCC2` (centres unmarked) [Compound 41] yielded an inhibition at 1 µM [1] of 4.2%.

`CCCC(C)c1nc2c(c(N)c1N1CCOCC1)CCCC2` (centres unmarked) [Compound 40] was tested, and the “Step through latency” value [2] was 113.1 ± 29.6 s.

With `Nc1c2c(nc(C3CCCCC3)c1N1CCCCC1)CCCC2` [Compound 28] the inhibition at 1 µM [1] was 22.2%, the “Inhibition rate (%)” value [3] was 85.2% and the “Inhibition rate (%)” value [4] was 80.5%.

`CCOc1nc2ccccc2c(N)c1N1CCCCC1` [Compound 44] was tested, and the “Step through latency” value [2] was 90.4 ± 12.4 s.

In the case of `Nc1ccnc(C2CCCCC2=O)c1N1CCCCC1` (centres unmarked) [Compound 50], the “Step through latency” value [2] is reported as 83.4 ± 14.8 s.

With `CCN(CC)c1c(C2CCCCC2O)nc2c(c1N)CCCC2` (centres unmarked) [Compound 23] the “Inhibition rate (%)” value [3] was 73.7% and the “Inhibition rate (%)” value [4] was 83.0%.

With `Nc1c(N2CCOCC2)c(Nc2ccccc2)nc2ccccc12` [Compound 13, 4-amino-2-anilino-3-morpholinoquinoline] the “Step through latency” value [2] was 100.2 ± 17.8 s.

With `CCNc1nc2ccccc2c(N)c1N1CCOCC1` [Compound 43, 4-amino-2-ethylamino-3-morpholinoquinoline] the “Step through latency” value [2] was 109.1 ± 13.4 s and the “Inhibition rate (%)” value [3] was 78.8%.

Compound `Nc1c2c(nc3ccccc13)CCCC2` [control, tetrahydroaminoacridine, reference compound] has an inhibition at 10 µM [5] of 60.8% and an inhibition at 10 µM [6] of 90.3%.

In the case of `Nc1c2c(nc(C3CCCCC3O)c1N1CCOCC1)CCCC2` (centres unmarked) [Compound 6, 4-amino-g-(2.-hydroxycyclohexyl)-3-morpholino-5,6,7,8-tetrahydroquinoline], the inhibition at 1 µM [1] is reported as 36.9%, the “Step through latency” value [2] is reported as 144.8 ± 45.1 s and the “Inhibition rate (%)” value [3] is reported as 82.6%.

`Nc1c2c(nc(NC3CCCCC3)c1N1CCOCC1)CCCC2` [Compound 16] was tested, and the inhibition at 1 µM [1] was 25.9%, the “Step through latency” value [2] was 102.1 ± 22.3 s and the “Inhibition rate (%)” value [3] was 88.1%.

`Nc1c(N2CCCCC2)cnc2ccccc12` [Compound 1, 4-amino-3-piperidinoquinoline] was tested, and the “Inhibition rate (%)” value [3] was 69.1%.

For `CCCN(CCC)c1c(C2CCCCC2)nc2c(c1N)CCCC2` [Compound 32], the inhibition at 1 µM [1] was 28.7%, the “Step through latency” value [2] was 109.7 ± 16.6 s and the “Inhibition rate (%)” value [3] was 73.2%. The “Inhibition rate (%)” value [4] was 71.0%.
